Results on two substances are retold here after US12370235B2, “Synthetic, non-natural antimicrobial peptides inspired by Staphylococcus auricularis delta toxin” (University of Saskatchewan, priority 2021, dated 2025).

In one data set the test system is M. luteus ATCC 4698. The data set can be described thus: MIC, broth dilution. Type of data set: cell-based, Micrococcus luteus. The settings on record: Table 4; liquid broth. The protocol:
MIC determination. MICs were measured using peptides with 95% purity. For bacterial studies, cation-adjusted Mueller Hinton (MH) broth was used as the growth medium whereas Yeast Peptone Dextrose (YPD; 10 g/L yeast extract, 20 g/L peptone, 20 g/L dextrose) was used for Candida spp. and other yeast. Microorganisms were diluted to an optical density of […] in MH or YPD broth and a 180 μl volume was mixed with 20 μl of peptide arrayed as a 2-fold dilution series in a flat-bottom 96-well microtitre plate. A control was performed using 20 μl of sterile water. Plates were incubated as standing cultures overnight at 37° C.
(§1) Determination of minimum inhibitory concentrations. The MICs were measured for bioactive peptides identified from the initial screen. For bacterial studies, cation-adjusted Mueller Hinton (MH) broth was used as the growth medium whereas YPD was used for C. albicans. Bacterial cultures were diluted to a OD value of 6×10^−4 in MH broth and a 180 μl volume was mixed with 20 μl of peptide arrayed as 2-fold dilution series in a 96-well plate. For the positive control, 20 μl of sterile water was used. Plates were incubated as standing cultures overnight at 37° C. The lowest peptide concentration that resulted no observed microbial growth after an overnight treatment was defined as the MIC.
On the technique in general: In broth dilution the organism is exposed to a series of concentrations in liquid medium.

The test system of data set [1] is S. aureus ATCC 29213. Kind of data set: MIC, broth dilution. Type of data set: cell-based, Staphylococcus aureus. The settings on record: for MIC (μg/mL) S. aureus: liquid broth. Summed up:
(§2)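 Peptides of 95% purity tested as 2-fold dilution series against bacteria diluted to OD 6×10^−4 in cation-adjusted Mueller Hinton broth. Standing cultures incubated overnight at 37° C; MIC is the lowest concentration with no visible growth.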

Data set [2] relates to Mannheimia haemolytica ATCC 33393. The data set can be described thus: MIC, broth dilution. The format is cell-based. The settings on record: Table 10; liquid broth. In a few lines: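 Read-out is the lowest peptide concentration showing no growth after an overnight standing culture at 37 °C. Two-fold serial dilutions of 95%-pure peptide were tested against M. haemolytica ATCC 33393 at OD 6×10^−4 in cation-adjusted MH broth.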

Data set [3] has as its system S. aureus ATCC 29213. Kind of data set: Spot-on-lawn assay. The format is cell-based, Staphylococcus aureus. The settings on record: 50 μg peptide spotted on agar. As to the method: Spot-on-lawn assay. For the initial screen, peptides of ≥70% purity were used. Each peptide was resuspended in sterile water to a concentration of 10 mg/ml. To determine antimicrobial activities a spot-on-lawn assay was performed. M. luteus and S. aureus were used as indicator strains. To prepare test organisms, the optical density (OD) of overnight cultures were measured and the organisms were diluted to an initial OD of 0.05 in soft nutrient agar (0.4% w/v) at 50° C. Next, 3 mL of soft agar containing a test organism was overlaid on a solid 1.5% w/v nutrient agar plate (LB). A total of 50 μg of each peptide was spotted on the inoculated surface and plates were incubated for 16 to 48 h before being examined for zones of inhibition.
SspA protease treatment. SspA protease was resuspended at 2 mg/mL in 100 mM HEPES, pH 7.8. Proteolysis was achieved by incubation of 50 μg PSMs at 37° C. for ˜5 hours with 0.2 mg/mL SspA. The antimicrobial activity of the proteolytic products were assayed by spotting a 5 μL (˜45 μg) from each treated peptide on each test microorganism as described above.

In data set [4] the test system is S. aureus ATCC 33592 (MRSA SCCmec type III). The data set can be described thus: MIC, broth dilution. The format is cell-based, Staphylococcus aureus. The settings on record: Table 5; STIP3 variants, highest concentration 100 μg/mL. In a few lines:
as §2

Data set [5] has as its system S. aureus / MRSA (ATCC MP-2 panel). Type of data set: cell-based, Staphylococcus aureus. The protocol: In order to begin to characterize STIP3-1 and potential sites amenable to modification, an alanine scanning experiment was performed. A total of 16 peptides with single alanine substitutions were assessed to inform on the importance of individual residues to antimicrobial activity. […] Next a series of thirty STIP3-1 variants were designed, guided by the aforementioned alanine scan and a previous report that the central α-helical core of the S. aureus δ-toxin could be converted into AMP through the inclusion of additional lysine residues^39. The collection included ten members with single substitutions relative to STIP3-1 and others that incorporated a number of changes that were designed to increase overall and local cationic charge as well as hydrophobic character (Table 5). Each of the STIPs was screened, including STIP3-1 to STIP-31, for antibiotic activity against a methicillin-sensitive S. aureus test organism and a panel of 7 MRSA strains defined by distinct SCCmec genotypes (FIG. 2; ATCC MP-2).
as §1

The nature of data set [6]: Circular dichroism spectroscopy. The format is physicochemical. The settings on record: CD, 50% (v/v) TFE. From the text:
The δ-toxins and the PSMs are characterized as α-helical peptides that form amyloid fibers^48. Although the propensity of individual peptides to form amyloids is correlated to their cytotoxicity^49, the amyloid form is not directly implicated in cell membrane disruption^50. […] CD spectroscopy was used to investigate the secondary structure of a subset of peptides within the collection (FIG. 4A, Table 5). The STIP variants adopted α-helical forms in 50% (v/v) trifluoroethanol (TFE), though unlike the full-length S. auricularis δ-toxin, they were unstructured in water. […] Specifically, peptides characterized by the greatest and least α-helical content in TFE had MICs above the highest tested threshold.
Circular dichroism spectroscopy. Peptides were dissolved in water at concentrations between 0.3 and 0.5 mg/mL. CD spectra were recorded on an Applied Photophysics Chirascan Plus CD spectrophotometer at room temperature in a 0.1 cm path-length quartz cuvette. Spectra were recorded from 180 to 260 nm.
On the technique in general: Circular dichroism is the unequal absorption of left and right circularly polarised light.

Ends that are not written are not given here. A value given as a limit tells only on which side of the number the result lay.

For the substance “TVAGLVKWILDTVKKFA [G3A, TVAGLVKWILDTVKKFA]”, the “MIC (μg/mL) M. luteus” value in the data set on M. luteus ATCC 4698 amounted to 50 µg/mL. Further, the “MIC (μg/mL) S. aureus” value is on record as “>^b (> = >200 μg/mL (maximum concentration tested))” with S. aureus ATCC 29213 [1] (Table 4) and “>^b (the use of > indicates an MIC > 200 μg/mL; the maximum concentration tested)” with S. aureus ATCC 29213 [1] (Table 10). Moreover, in data set [2], the “MIC (μg/mL) M. haemolytica” value stood at 100 µg/mL. In addition, the “inhibition of S. aureus, spot-on-lawn” value in the data set with S. aureus ATCC 29213 [3] is listed as “observed to inhibit S. aureus”.
As for TVGGLVKWILKTVKKFA-NH2 [STIP3-29-D3], the “MIC S. aureus ATCC 29213” value with S. aureus ATCC 29213 [1] (Table 5, STIP3 variants, highest concentration 100 μg/mL) is given as “> (no inhibition was observed at the highest concentration of peptide tested: 100 μg/mL for the STIP3 variants)”. Further, the “MIC S. aureus ATCC 33592 (III)” value in data set [4] was “> (no inhibition was observed at the highest concentration of peptide tested: 100 μg/mL for the STIP3 variants)”. In data set [5], the “fold increase of MIC relative to STIP3-29” value is given as “greater than 16 fold”. Moreover, the “α helicity (%)” value in data set [6] is listed as 32%.
